Assay results published in paper PMC4351682, “Formononetin inhibits enterovirus 71 replication by regulating COX- 2/PGE2 expression” (Virology Journal, 2015).

What was measured:
EV71 SHZH98 strain [1] = assay: CPE inhibition assay for anti-EV71 in SK-N-SH cells; type: cell-based, enterovirus 71; conditions: Enterovirus A, 48 h
Description: (§1) The anti-EV71 activity of formononetin was assayed by CPE inhibition method. Briefly, cells (3 × 10^4 cells/well) were plated into 96-well culture plates for incubation of 24 h. The medium was then removed and cells were infected with EV71 of 80 pfu/well. Then, various concentrations of formononetin were supplemented for incubation of another 48 h. […] The selectivity index (SI) was calculated as the ratio of TC50/IC50 [19].

COX-2 = assay: Western blot of EV71-induced COX-2 expression in SK-N-SH cells; type: cell-based; conditions: formononetin 14.91 μmol/L, pirodavir 1.08 μmol/L, 24 h
Description: Figure 4 Formononetin could inhibit EV71-induced COX-2 expression and PGE 2 production. (A) Formononetin but not pirodavir can reduce the expression of COX-2 induced by EV71 infection. SK-N-SH cells were mock-infected or infected with 480 pfu/well of EV71 (SHZH98) for 2 h. The cells were then treated with formononetin (14.91 μmol/L) and pirodavir (1.08 μmol/L), respectively, for 24 h. The cells were harvested and EV71-VP1 and COX-2 were examined by western blot. (B) Formononetin but not pirodavir can reduce the release of PGE2 stimulated by EV71 infection. SK-N-SH cells were pretreated with formononetin (14.91 μmol/L) or pirodavir (1.08 μmol/L) for 24 h. The cells were infected with 4.8 × 10^5 pfu/well of EV71 (SHZH98). At 24 h p.i., the culture supernatants were harvested for PGE2 release assay. Cells were lysed in the M-PER mammalian protein extraction reagent (Thermo, Rockford, IL) containing halt protease inhibitor single-use cocktail (Thermo). The protein concentration was determined by the BCA reagents (Thermo). About 10 μg proteins were denatured and applied to sodium dodecyl sulfate-polyacrylamide gel electrophoresis (SDS-PAGE). The electrophoresis products were transferred to a polyvinyl idenefluoride (PVDF) film and PVDF membranes were then incubated at room temperature with specific primary antibody. […]

JNK = assay: Western blot of EV71-induced phosphorylation of JNK in SK-N-SH cells; type: cell-based; conditions: pretreatment 24 h, formononetin 14.91 μmol/L, pirodavir 1.08 μmol/L, EV71 30 min
Description: (§2) Figure 3 Formononetin but not pirodavir reduces the phosphorylation of ERK (A), p38 (B), and JNK (C) induced by EV71 infection. SK-N-SH cells (9 × 10^5 cells/well) were plated into 6-well culture plates. The cells were then pretreated with formononetin (14.91 μmol/L) and pirodavir (1.08 μmol/L), respectively. After 24 h, the cells were mock-infected or infected with 4.8 × 10^5 pfu/well of EV71 (SHZH98) for 15 min (A), 10 min (B), and 30 min (C), respectively. The cells were harvested and ERK (A) p-ERK (A), p38 (B), p-p38 (B), JNK (C), and p-JNK (C) were detected by western blot.
(§3) Cells were lysed in the M-PER mammalian protein extraction reagent (Thermo, Rockford, IL) containing halt protease inhibitor single-use cocktail (Thermo). The protein concentration was determined by the BCA reagents (Thermo). About 10 μg proteins were denatured and applied to sodium dodecyl sulfate-polyacrylamide gel electrophoresis (SDS-PAGE). The electrophoresis products were transferred to a polyvinyl idenefluoride (PVDF) film and PVDF membranes were then incubated at room temperature with specific primary antibody. After a standard washing, membranes were incubated with horse radish peroxidase (HRP)-labeled secondary antibody. The assay developed using a chemiluminescent substrate. […]

EV71 SHZH98 strain [2] = assay: CPE inhibition assay for anti-EV71 in Vero cells; type: cell-based, enterovirus 71; conditions: Enterovirus A, 48 h
Description: as §1

p38 = assay: Western blot of EV71-induced phosphorylation of p38 in SK-N-SH cells; type: cell-based; conditions: pretreatment 24 h, formononetin 14.91 μmol/L, pirodavir 1.08 μmol/L, EV71 10 min
Description: as §2, §3

ERK = assay: Western blot of EV71-induced phosphorylation of ERK in SK-N-SH cells; type: cell-based; conditions: pretreatment 24 h, formononetin 14.91 μmol/L, pirodavir 1.08 μmol/L, EV71 15 min
Description: as §2, §3

EV71 VP1 protein = assay: Western blot of EV71 VP1 protein in SK-N-SH cells; type: cell-based, enterovirus 71; conditions: EV71 SHZH98 infected SK-N-SH cells
From the text: Figure 2 The antiviral effect of formononetin and pirodavir against EV71 in SK-N-SH cells. (A) Formononetin and pirodavir reduced the expression of EV71 VP1 protein in SK-N-SH cells by western blot assay. (B) Formononetin and pirodavir reduced the expression of EV71 VP1 protein in SK-N-SH cells by immunofluorescence assay. Cells were examined using a fluorescence microscopy (×100). (C) Formononetin and pirodavir reduced the expression of EV71 VP1 RNA by one-step qRT-PCR assay. *P < 0.001 ^# P < 0.05.
as §3

EV71 (SHZH98) = assay: Time course assay (CPE) in SK-N-SH cells; type: cell-based, enterovirus 71; conditions: for Reduction of virus-induced CPE, time course: CPE at 48 h
Description: Figure 1 The chemical structure of formononetin and time course assay. (A) The illustration of the protocol of viral adsorption and treatment with formononetin and pirodavir. SK-N-SH cells were infected with 80 pfu/well of EV71 (SHZH98). Formononetin (9.21 μM) and pirodavir (0.84 μM) was added at the indicated times, respectively. […] The cytopathic effect (CPE) assay was shown. (C) The chemical structure of formononetin.
The antiviral activity of formononetin was examined at different time periods before and after viral infection as shown in Figure 1A. Briefly, cells (3 × 10^4 cells/well) were seeded and incubated for 16 h. The cell monolayer was then infected with EV71 of 80 pfu/well. Different concentrations of formononetin were supplemented into cells following the protocol. Cells were then incubated for another 48 h and assayed with CPE assay.

COc1ccc(-c2coc3cc(O)ccc3c2=O)cc1 [Formononetin]
IC50 (EV71 SHZH98 strain [1]): 3980 ± 800 nM | EV71-stimulated COX-2 expression (COX-2): inhibited | EV71-stimulated phosphorylation of JNK (JNK): significantly attenuated | IC50 (EV71 SHZH98 strain [2]): 3450 ± 550 nM | EV71-stimulated phosphorylation of p38 (p38): significantly attenuated | EV71-stimulated phosphorylation of ERK (ERK): significantly attenuated | Expression of EV71 VP1 protein (western blot) (EV71 VP1 protein): decrease the expression of VP1 protein in a dose dependent manner | Reduction of virus-induced CPE, time course (EV71 (SHZH98); formononetin 9.21 μM added at 24 and 12 h before, and 0 to 6 h after EV71 infection): able to effectively reduce virus-induced CPE | Reduction of virus-induced CPE, time course (EV71 (SHZH98); formononetin 9.21 μM added at −1, 9, and 12 h of EV71 infection): did not exert this effect

CCOC(=O)c1ccc(OCCC2CCN(c3ccc(C)nn3)CC2)cc1 [Pirodavir, reference compound]
IC50 (EV71 SHZH98 strain [1]): 230 ± 40 nM | EV71-stimulated COX-2 expression (COX-2): not | EV71-stimulated phosphorylation of JNK (JNK): not | IC50 (EV71 SHZH98 strain [2]): 380 ± 80 nM | EV71-stimulated phosphorylation of p38 (p38): not | EV71-stimulated phosphorylation of ERK (ERK): not | Expression of EV71 VP1 protein (western blot) (EV71 VP1 protein): decrease | Reduction of virus-induced CPE, time course: effective time of addition (EV71 (SHZH98); pirodavir 0.84 μM, effective 0–9 h p.i., not before or during the infection): functioned only after viral infection (0–9 h p.i.)
